This is an account of results in patent US20170334899A1, “AMINO-SUBSTITUTED ISOTHIAZOLES” (Bayer Pharma Aktiengesellschaft, priority 2014, published 2017).

In the experiment the target is T1, catalytic domain of human Bub1 (amino acids 704-1085) (Homo sapiens, UniProt O43683).
T1 construct: catalytic domain of human Bub1 (amino acids 704-1085); His6 (N); made in house; host or cells: insect cells (Hi5)
T1 sequence (O43683 704-1085): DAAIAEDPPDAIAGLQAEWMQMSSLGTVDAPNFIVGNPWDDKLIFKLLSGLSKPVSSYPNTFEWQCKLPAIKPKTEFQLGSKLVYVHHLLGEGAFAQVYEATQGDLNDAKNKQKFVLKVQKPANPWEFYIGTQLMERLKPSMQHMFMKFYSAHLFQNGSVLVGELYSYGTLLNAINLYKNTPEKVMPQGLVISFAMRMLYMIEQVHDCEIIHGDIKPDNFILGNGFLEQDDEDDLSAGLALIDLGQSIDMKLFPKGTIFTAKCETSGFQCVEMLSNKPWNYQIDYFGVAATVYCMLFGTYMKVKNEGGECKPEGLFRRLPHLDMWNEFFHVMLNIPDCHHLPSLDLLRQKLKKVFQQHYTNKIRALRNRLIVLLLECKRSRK
Description: Bub1 kinase assay (TR-FRET). It is filed as biochemical. The note with it: 10 μM ATP, avg, read-out: Bub1 avg (IC50 [mol/l]). In outline: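 Readout is the 665/620 nm TR-FRET ratio from anti-phosphoserine antibody, Eu-labelled anti-mouse IgG and streptavidin-XL665, scaled between no-enzyme and uninhibited controls. Reaction: 1 μM biotinylated peptide, 10 μM ATP, 60 min, 22 °C, after 15 min compound preincubation with His6-Bub1 (704-1085, insect-expressed, ~200 ng/ml).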
Take `Cc1nsc(Nc2cnc(C(F)(F)F)cn2)c1C(=O)Nc1ccc(F)c(OCC2CCN(CCC(F)(F)F)CC2)c1` [Example 311, N-(4-fluoro-3-{[1-(3,3,3-trifluoropropyl)piperidin-4-yl]methoxy}phenyl)-3-methyl-5-{[5-(trifluoromethyl)pyrazin-2-yl]amino}-1,2-thiazole-4-carboxamide]: the IC50 is more than 20 µM.

With `Cc1nsc(Nc2cnc(C(F)(F)F)cn2)c1C(=O)Nc1ccc(F)c(OCC2CCN(C(CF)CF)CC2)c1` [Example 312, N-(3-{[1-(1,3-difluoropropan-2-yl)piperidin-4-yl]methoxy}-4-fluorophenyl)-3-methyl-5-{[5-(trifluoromethyl)pyrazin-2-yl]amino}-1,2-thiazole-4-carboxamide], the IC50 was not below 20 µM.

For `Cc1nsc(Nc2cnc(C(F)(F)F)cn2)c1C(=O)Nc1ccc(OC2CCN(C(CF)CF)C2)nc1` (stereo not shown) [Example 313, N-(6-{[1-(1,3-difluoropropan-2-yl)pyrrolidin-3-yl]oxy}pyridin-3-yl)-3-methyl-5-{[5-(trifluoromethyl)pyrazin-2-yl]amino}-1,2-thiazole-4-carboxamide], the IC50 was not below 20 µM.

`Cc1nsc(Nc2cnc(C(F)(F)F)cn2)c1C(=O)Nc1ccc(F)c(OC2CCN(CC(F)F)C2)c1` (stereo not shown) [Example 314, N-(3-{[1-(2,2-difluoroethyl)pyrrolidin-3-yl]oxy}-4-fluorophenyl)-3-methyl-5-{[5-(trifluoromethyl)pyrazin-2-yl]amino}-1,2-thiazole-4-carboxamide]: the IC50 is not below 20 µM.

Turning to `Cc1nsc(Nc2cnc(C(F)(F)F)cn2)c1C(=O)Nc1ccc(F)c(OC2CCN(CC(F)(F)F)C2)c1` (stereo not shown) [Example 315, N-(4-fluoro-3-{[1-(2,2,2-trifluoroethyl)pyrrolidin-3-yl]oxy}phenyl)-3-methyl-5-{[5-(trifluoromethyl)pyrazin-2-yl]amino}-1,2-thiazole-4-carboxamide], the IC50 was not below 20 µM.

`Cc1nsc(Nc2cnc(C(F)(F)F)cn2)c1C(=O)Nc1ccc(F)c(OCC2CCN(CC(F)F)C2)c1` (stereo not shown) [Example 316, N-(3-{[1-(2,2-difluoroethyl)pyrrolidin-3-yl]methoxy}-4-fluorophenyl)-3-methyl-5-{[5-(trifluoromethyl)pyrazin-2-yl]amino}-1,2-thiazole-4-carboxamide]: the IC50 is not below 20 µM.

As to `Cc1nsc(Nc2cnc(C(F)(F)F)cn2)c1C(=O)Nc1ccc(F)c(OCC2CCN(CCF)C2)c1` (stereo not shown) [Example 317, N-(4-fluoro-3-{[1-(2-fluoroethyl)pyrrolidin-3-yl]methoxy}phenyl)-3-methyl-5-{[5-(trifluoromethyl)pyrazin-2-yl]amino}-1,2-thiazole-4-carboxamide], the IC50 is more than 20 µM.

For `Cc1nsc(Nc2cnc(C(F)(F)F)cn2)c1C(=O)Nc1ccc(F)c(OCC2CCN(C(CF)CF)C2)c1` (stereo not shown) [Example 320, N-(3-{[1-(1,3-difluoropropan-2-yl)pyrrolidin-3-yl]methoxy}-4-fluorophenyl)-3-methyl-5-{[5-(trifluoromethyl)pyrazin-2-yl]amino}-1,2-thiazole-4-carboxamide], the IC50 was not below 20 µM.

For `Cc1nsc(Nc2cnc(C(F)(F)F)cn2)c1C(=O)Nc1ccc(OCCNCCF)nc1` [Example 321, N-(6-{2-[(2-fluoroethyl)amino]ethoxy}pyridin-3-yl)-3-methyl-5-{[5-(trifluoromethyl)pyrazin-2-yl]amino}-1,2-thiazole-4-carboxamide], the IC50 stood at 14 µM.

For `Cc1nsc(Nc2cnc(C(F)(F)F)cn2)c1C(=O)Nc1ccc(OCCNCC(F)(F)F)nc1` [Example 322, 3-methyl-N-(6-{2-[(2,2,2-trifluoroethyl)amino]ethoxy}pyridin-3-yl)-5-{[5-(trifluoromethyl)pyrazin-2-yl]amino}-1,2-thiazole-4-carboxamide], the IC50 was not below 20 µM.
